From patent publication US20150038435A1, “N-TERMINALLY MODIFIED OLIGOPEPTIDES AND USES THEREOF” (Novo Nordisk A/S, priority 2012, published 2015)
Each block holds one molecule with its values, some of them ahead of it. Starred links: 1 amine or outer side, 2 acyl side, 3 side chain; linkers in the order of their positions; H or OH if unused. Non-standard residues stand in square brackets, D forms with d. Residues, ends and D or L forms follow the SMILES beside them. *: point of attachment. γGlu = O=C(O)[C@H](CCC(=O)[*:2])N[*:1]; C14 diacid = O=C(O)CCCCCCCCCCCCC(=O)*; Palmitoyl = CCCCCCCCCCCCCCCC(=O)*; Myristoyl = CCCCCCCCCCCCCC(=O)*

Tests used:
[1] = test system: Chymotrypsin; assay: Inhibition of enzymatic degradation of a model GLP-1 (FRET substrate) by chymotrypsin; type: biochemical; details: for EC50: read-out: EC50 Chymotrypsin (0.001 mg/ml), 0.001 mg/ml chymotrypsin, 37° C., ± standard error if at least 3 measurements
Summary of the method: (§1)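 Initial-rate slopes of fluorescence rise (320 nm ex, 405 nm em), fitted over the linear early phase and averaged from duplicates, were plotted against inhibitor concentration and fitted logistically to give EC50. Reactions ran at 37° C in Dulbecco's PBS, with MCA/DNP GLP-1 FRET substrate added as 10 μl of 100 μM stock.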

[2] = test system: Trypsin; assay: Inhibition of enzymatic degradation of a model GLP-1 (FRET substrate) by trypsin; type: biochemical; details: for EC50: read-out: EC50 Trypsin (0.001 mg/ml), 0.001 mg/ml trypsin, 37° C.
Summary of the method: as §1

[3] = test system: GI juice; assay: Inhibition of GI juice degradation of insulin analogue and GLP-1 analogue; type: biochemical; details: rat GI juice
Protocol: 96 well plates were coated by incubating with 0.4% Bovine serum albumin (BSA) solution for minimum of 60 min. […] 1% TFA), 30 μl of a substrate (100 μM insulin analogue or GLP-1 analogue in buffer) and 30 μl of N-terminally acylated peptide or oligopeptide of the invention (10 mM) were added. The plates were pre-incubated (before adding GI juice) for 60 min at 37° C. After addition of 30 μl of GI juice (10-times diluted in buffer), the plates were incubated for 60 min/37° C. on shaker. […] 1% TFA and spun down in plates (4500 rpm for 10 min). Samples were diluted 5 times with the buffer prior to LC-MS analysis. Standard samples (0.1, 0.5, 1.0, 5.0, 10.0 μM) were prepared and treated as the samples. Standard curve was analysed both at the beginning and the end of the sequence. Two replicates of each tested conditions were included. Ion suppression was assessed by analyzing a standard at 1 μM and at 10 μM with 1 mM inhibitor present. Intact insulin or GLP-1 analoues were determined at each sample. The results were plotted against the incubation time. […] The half-lives were expressed relative to the half-live of the insulin or GLP-1 analogue without inhibitor present by dividing the half-lives obtained in the presence of inhibitor with those obtained in the absence of inhibitors. GI juice was prepared from male Sprague Dawley rats (200-250 g) by excising approximately 20 cm piece of mid jejunum and rinsing the inside with 2.5 ml 0.9% sodium chloride solution. The sodium chloride solution was collected in a centrifuge tube, pooled from all rats (20) and centrifuged at 4500 rpm./10 min/4° C. The supernatant was aliquoted in tubes and stored at −80° C.
A14E, B25H, B29K(N(eps)Octadecanedioyl-γGlu-OEG-OEG), desB30 human insulin and N-epsilon26-[2-(2-{2-[2-(2-{2-[(S)-4-Carboxy-4-(17-carboxyheptadecanoylamino)-butyrylamino]ethoxy}ethoxy)acetylamino]ethoxy}ethoxy)acetyl][Aib8,Arg34]GLP-1-(7-37) were used as standards in this assay.
For experiments repeated more than two times, standard deviation is given

[4] = Hydrophobicity: retention time during reverse phase HPLC; type: physicochemical; details: Acquity CSH C18; pH 7.2 buffer/CH3CN gradient; 40° C.
Description: The retention time (RT) during reverse phase HPLC was taken as a measure of hydrophobicity of an N-terminally modified peptide or oligopeptide of the invention, where the connection is: The longer the RT, the more hydrophobic N-terminally modified peptide or oligopeptide. The following running conditions were applied during HPLC analysis:
Buffer B: 70% (v/v) aq. CH3CN

[5] = Stability of N-terminally acylated peptides or oligopeptides in GI juice; type: in vitro ADME; details: GI juice (jejunum extract); degradation of the compound itself in jejunum extract from rat; read-out: t 1/2 in rat GI juice
Protocol: 96 well plates were coated by incubating with 0.4% Bovine serum albumin (BSA) solution for minimum of 60 min. To each well, 210 μl of buffer (Hank's balanced salt solution-4-(2-hydroxyethyl)-1-piperazineethanesulfonic acid (HBSS-HEPES) buffer) with 0.005% Tween 20 and 0.001% BSA, pH 6.5 precipitated with 3 vol. cold 96% ethanol (EtOH) w. 1% TFA), 30 μl of a substrate (100 μM insulin analogue or GLP-1 analogue in buffer) and 30 μl of N-terminally acylated peptide or oligopeptide of the invention (10 mM) were added. The plates were pre-incubated (before adding GI juice) for 60 min at 37° C. After addition of 30 μl of GI juice (10-times diluted in buffer), the plates were incubated for 60 min/37° C. on shaker. Samples (40 μl) were taken at 0, 5, 10, 20, 30 and 60 min, stopped with 3 vol. cold 96% EtOH w. 1% TFA and spun down in plates (4500 rpm for 10 min). Samples were diluted 5 times with the buffer prior to LC-MS analysis. Standard samples (0.1, 0.5, 1.0, 5.0, 10.0 μM) were prepared and treated as the samples. Standard curve was analysed both at the beginning and the end of the sequence. Two replicates of each tested conditions were included. Ion suppression was assessed by analyzing a standard at 1 μM and at 10 μM with 1 mM inhibitor present. Intact insulin or GLP-1 analoues were determined at each sample. The results were plotted against the incubation time. Half-lives of the insulin or GLP-1 analogues were determined by nonlinear regression of the results using, for example Graph Pad Prism. The half-lives were expressed relative to the half-live of the insulin or GLP-1 analogue without inhibitor present by dividing the half-lives obtained in the presence of inhibitor with those obtained in the absence of inhibitors. GI juice was prepared from male Sprague Dawley rats (200-250 g) by excising approximately 20 cm piece of mid jejunum and rinsing the inside with 2.5 ml 0.9% sodium chloride solution. The sodium chloride solution was collected in a centrifuge tube, pooled from all rats (20) and centrifuged at 4500 rpm./10 min/4° C. The supernatant was aliquoted in tubes and stored at −80° C.
Degradation of the N-terminally fatty acid modified peptide or oligopeptide of the invention themselves in jejunum extract from rat (GI juice) and determination of half-lives, was measured as described above (example 200).

[6] = compound 0.1 mM, buffer containing 8% DMSO

Molecule: CCCCCCCCCCCCCC(=O)N[C@@H](CCC(=O)N[C@H](C)C(=O)N1CCC[C@@H]1C(=O)N[C@H](Cc1ccccc1)C(=O)O)C(=O)O [Example 148, N-tetradecanoyl-γGlu-DAla-DPro-DPhe-OH] ({Myristoyl-γGlu}-[dA]-[dP]-[dF]-OH)
EC50 [1]: 322 µM | half-life [5]: > 1000 min

Molecule: N-dodecanoyl-γGlu-OEG-Pro-Arg-OH [Example 127]
Slope of the initial increase in fluorescence obtained during incubation with 0.001 mg/ml Chymotrypsin ([1]; compound 1 mM): 0.62 | Slope of the initial increase in fluorescence obtained during incubation with 0.001 mg/ml Trypsin ([2]; compound 1 mM): 0.72 | RT (retention time during reverse phase HPLC as a measure of hydrophobicity) [4]: 3.67 min

Molecule: N-dodecanoyl-γGlu-γGlu-Ala-Ala-Pro-Tyr-OH [Example 99]
Slope of the initial increase in fluorescence obtained during incubation with 0.001 mg/ml Chymotrypsin [1, 6]: 0.35 | Slope of the initial increase in fluorescence obtained during incubation with 0.001 mg/ml Trypsin [2, 6]: 1.52 | RT (retention time during reverse phase HPLC as a measure of hydrophobicity) [4]: 3.41 min

Molecule: N-hexadecanoyl-γGlu-OEG-Ala-Ala-Pro-Phe-OH [Example 134]
EC50 [1]: 48 µM | EC50 [2]: 46 µM | RT (retention time during reverse phase HPLC as a measure of hydrophobicity) [4]: 7 min

Molecule: N-tetradecandioyl-Ala-Ala-Pro-Phe-OH ({C14 diacid}-AAPF-OH) [Example 16]
Slope of the initial increase in fluorescence obtained during incubation with 0.001 mg/ml Chymotrypsin ([1]; compound 1 mM): 0.14 | Slope of the initial increase in fluorescence obtained during incubation with 0.001 mg/ml Trypsin ([2]; compound 1 mM): 3.23 | RT (retention time during reverse phase HPLC as a measure of hydrophobicity) [4]: 3.11 min

Molecule: N-tetradecanoyl-Ala-Ala-Pro-DPhe-OH [Example 5]
Slope of the initial increase in fluorescence obtained during incubation with 0.001 mg/ml Chymotrypsin ([1]; compound 1 mM): 0.09 | EC50 [1]: 105 µM | Slope of the initial increase in fluorescence obtained during incubation with 0.001 mg/ml Trypsin ([2]; compound 1 mM): 0.35 | RT (retention time during reverse phase HPLC as a measure of hydrophobicity) [4]: 9.74 min

Molecule: N-tetradecanoyl-Ala-Ala-Pro-Phe-OH [Example 3]
Slope of the initial increase in fluorescence obtained during incubation with 0.001 mg/ml Chymotrypsin ([1]; compound 1 mM): 0.01 | EC50 [1]: 57 ± 2 µM | Slope of the initial increase in fluorescence obtained during incubation with 0.001 mg/ml Trypsin ([2]; compound 1 mM): 0.37 | EC50 [2]: 74 µM | RT (retention time during reverse phase HPLC as a measure of hydrophobicity) [4]: 9.74 min

Molecule: N-tetradecanoyl-βAla-Ala-Pro-Phe-OH [Example 9]
Slope of the initial increase in fluorescence obtained during incubation with 0.001 mg/ml Chymotrypsin ([1]; compound 1 mM): 0.01 | Slope of the initial increase in fluorescence obtained during incubation with 0.001 mg/ml Trypsin ([2]; compound 1 mM): 0.21 | RT (retention time during reverse phase HPLC as a measure of hydrophobicity) [4]: 8.73 min

Molecule: N-tetradecanoyl-βAla-βAla-Pro-Phe-OH [Example 136]
EC50 [1]: 106 µM | EC50 [2]: 13 µM | RT (retention time during reverse phase HPLC as a measure of hydrophobicity) [4]: 8.73 min

B1: Soya bean trypsin inhibitor: soya bean trypsin inhibitor (Kunitz type, SBTI), protease inhibitor described in the public domain (protein, UniProt P01070 25-205, looked up)
Trypsin inhibitor A: DFVLDNEGNPLENGGTYYILSDITAFGGIRAAPTGNERCPLTVVQSRNELDKGIGTIISSPYRIRFIAEGHPLSLKFDSFAVIMLCVGIPTEWSVVEDLPEGPAVKIGENKDAMDGWFRLERVSDDEFNNYKLVFCPQQAEDDKCGDIGISIDHDDGTRRLVVSKNKPLVVQFQKLDKESL
Half Life of insulin analogue ([3]; inhibitor 0.1%, ± standard deviation): 505.3 ± 309.2 min

Further lines, with some results ahead:

RT (retention time during reverse phase HPLC as a measure of hydrophobicity) [4]: 5.19 min
Molecule: CCCCCCCCCCCCCC(=O)N[C@@H](CCC(=O)O)C(=O)N[C@@H](C)C(=O)N[C@@H](C)C(=O)N1CCC[C@H]1C(=O)N[C@@H](Cc1ccccc1)C(=O)O [Example 13, N-tetradecanoyl-Glu-Ala-Ala-Pro-Phe-OH] (Myristoyl-EAAPF-OH)
Slope of the initial increase in fluorescence obtained during incubation with 0.001 mg/ml Chymotrypsin ([1]; compound 1 mM): 0.00 | Slope of the initial increase in fluorescence obtained during incubation with 0.001 mg/ml Trypsin ([2]; compound 1 mM): 0.12 | Half Life fold increase (over solution w/o N-terminally acylated (oligo)peptide) ([3]; compound 1 mM): 3.4 | Half Life of insulin analogue ([3]; compound 1 mM, 37° C.): 7.2 min

EC50 [1]: 45 µM | EC50 [2]: 40 µM | RT (retention time during reverse phase HPLC as a measure of hydrophobicity) [4]: 7.5 min
Molecule: CCCCCCCCCCCCCCCC(=O)N[C@@H](CCC(=O)N[C@@H](C)C(=O)N[C@@H](C)C(=O)N1CCC[C@H]1C(=O)N[C@@H](Cc1ccccc1)C(=O)O)C(=O)O [Example 135, N-hexadecanoyl-γGlu-Ala-Ala-Pro-Phe-OH] ({Palmitoyl-γGlu}-AAPF-OH)
Half Life fold increase (over solution w/o N-terminally acylated (oligo)peptide) ([3]; compound 1 mM): 3.8 | Half Life of GLP-1 analogue ([3]; compound 1 mM, 37° C.): 0.9 min | Half Life of insulin analogue ([3]; compound 1 mM, 37° C.): 9.2 min

EC50 [1]: 32 µM | EC50 [2]: 102 µM | half-life [5]: 4.5 min
Molecule: CCCCCCCCCCCCCC(=O)N[C@@H](Cc1c[nH]cn1)C(=O)N[C@@H](C)C(=O)N[C@@H](CCCNC(=N)N)C(=O)N1CCC[C@H]1C(=O)N[C@@H](Cc1ccccc1)C(=O)O [Example 178, N-tetradecanoyl-His-Ala-Arg-Pro-Phe-OH] (Myristoyl-HARPF-OH)

RT (retention time during reverse phase HPLC as a measure of hydrophobicity) [4]: 3.62 min
Molecule: N-dodecanoyl-γGlu-OEG-OEG-Arg-OH [Example 132]
Slope of the initial increase in fluorescence obtained during incubation with 0.001 mg/ml Chymotrypsin ([1]; compound 1 mM): 0.35 | Slope of the initial increase in fluorescence obtained during incubation with 0.001 mg/ml Trypsin ([2]; compound 1 mM): 0.26

RT (retention time during reverse phase HPLC as a measure of hydrophobicity) [4]: 3.62 min
Molecule: N-dodecanoyl-γGlu-OEG-OEG-DArg-OH [Example 133]
Slope of the initial increase in fluorescence obtained during incubation with 0.001 mg/ml Chymotrypsin ([1]; compound 1 mM): 0.27 | Slope of the initial increase in fluorescence obtained during incubation with 0.001 mg/ml Trypsin ([2]; compound 1 mM): 0.09

RT (retention time during reverse phase HPLC as a measure of hydrophobicity) [4]: 3.9 min
Molecule: N-dodecanoyl-γGlu-Pro-Tyr-OH [Example 100]
Slope of the initial increase in fluorescence obtained during incubation with 0.001 mg/ml Chymotrypsin [1, 6]: 1.75 | Slope of the initial increase in fluorescence obtained during incubation with 0.001 mg/ml Trypsin [2, 6]: 1.69

EC50 [1]: 154 µM | EC50 [2]: 39 µM | RT (retention time during reverse phase HPLC as a measure of hydrophobicity) [4]: 8.16 min
Molecule: N-tetradecanoyl-βAla-βAla-βAla-Pro-Phe-OH [Example 138]

EC50 [1]: 102 µM | EC50 [2]: > 500 µM | RT (retention time during reverse phase HPLC as a measure of hydrophobicity) [4]: 5.02 min
Molecule: N-tetradecanoyl-γGlu-OEG-Ala-Ala-Pro-Phe-OH [Example 126]
Slope of the initial increase in fluorescence obtained during incubation with 0.001 mg/ml Chymotrypsin ([1]; compound 1 mM): 0.05 | Slope of the initial increase in fluorescence obtained during incubation with 0.001 mg/ml Trypsin ([2]; compound 1 mM): 0.30
